Results from US6462055B2, “Alpha-methylbenzyl-containing thiourea inhibitors of herpes viruses containing a phenylenediamine group” (Wyeth, priority 1998, dated 2002).
In brackets after ≈: the same amount, converted by molar mass.

Key:
[1] = tested on: HCMV recombinant mutant virus (RV145); assay: microbe, parasite or virus in culture; format: cell-based, human cytomegalovirus; conditions: for IC50: Human betaherpesvirus 5, read-out: IC50 ug/ml HCMV, HCMV
Outline: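 Read-out is beta-glucuronidase activity in cell lysates 96 h after infection, measured colorimetrically or fluorometrically. Reporter virus RV145 expresses the enzyme under a viral promoter in human foreskin fibroblasts treated with inhibitor.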

HSV-1 = assay: HSV Antiviral (ELISA) Assay in Vero cells; format: cell-based, herpes simplex virus type 1; conditions: HSV-1, Vero cells; for IC50: Human alphaherpesvirus 1, read-out: IC50 (ug/ml) HSV
Outline: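 Viral replication was quantified by cell-fixed ELISA for HSV glycoprotein D, using a β-galactosidase reporter and fluorogenic umbelliferyl substrate, about 24 h after HSV-1 infection (MOI 0.006) of Vero cells. Compounds, at several concentrations, were added 30 min pre-infection. IC50 was derived from fluorescence relative to the compound-free signal.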

VZV strain Ellen = assay: VZV Antiviral (ELISA) Assay in human foreskin fibroblast cells; format: cell-based, varicella-zoster virus; conditions: for IC50: Human alphaherpesvirus 3, Fibroblast, read-out: IC50 (ug/ml) VZV
Outline: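 HFF cells infected with VZV Ellen at low multiplicity (<0.1) overnight were seeded at 3.5×10^4 cells/well in DMEM with 2% FBS plus compound and incubated three days at 37° C., 5% CO2. Viral replication was read by ELISA against glycoprotein II with β-galactosidase fluorogenic readout (ex 365/em 450 nm); IC50 relative to no-compound fluorescence.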

Compound | IC50 [1] [µg/mL] | IC50 (HSV-1) [µg/mL] | IC50 (VZV strain Ellen) [µg/mL] | IC50 ug/ml HCMV [1] [µg/mL] | IC50 (ug/ml) HSV (HSV-1) [µg/mL] | IC50 (ug/ml) VZV (VZV strain Ellen) [µg/mL] | % inhibition 10 ug/ml VZV (VZV strain Ellen) [%]
CC(NC(=S)Nc1ccc(C(=O)Nc2ccc(F)cc2)cc1)c1ccc(F)cc1 (centres unmarked) [Example 975, N-(4-Fluoro-phenyl)-4-{3-[1-(4-fluoro-phenyl)-ethyl]-thioureido}-benzamide] | > 10 | > 10 | 0.87 (≈ 2.11 µM) | – | – | – | –
CC(NC(=S)Nc1ccc(NC(=O)c2nccc3ccccc23)cc1)c1ccc(F)cc1 (centres unmarked) [Example 976, Isoquinoline-1-carboxylic acid (4-{3-[1-(4-fluoro-phenyl)-ethyl]-thioureido}-phenyl)-amide] | – | > 10 | 0.04 (≈ 0.09 µM) | >10 | – | – | –
CC(NC(=S)Nc1ccc(NC(=O)c2nccc3ccccc23)cc1)c1cc2ccccc2o1 (centres unmarked) [Example 977, Isoquinoline-1-carboxylic acid {4-[3-(1-benzofuran-2-yl-ethyl)-thioureido]-phenyl}-amide] | > 10 | > 10 | 0.05 (≈ 0.107 µM) | – | – | – | –
CC(NC(=S)Nc1ccc(NC(=O)c2cc3ccccc3o2)cc1)c1ccc(F)cc1 (centres unmarked) [Example 980, Benzofuran-2-carboxylic acid (4-{3-[1-(4-fluoro-phenyl)-ethyl]-thioureido}-phenyl)-amide] | > 10 | > 10 | 0.15 (≈ 0.346 µM) | – | – | – | –
CC(NC(=S)Nc1ccc(NC(=O)c2cc3ccccc3o2)cc1)c1cc2ccccc2o1 (centres unmarked) [Example 981, Benzofuran-2-carboxylic acid {4-[3-(1-benzofuran-2-yl-ethyl)-thioureido]-phenyl}-amide] | > 10 | > 10 | 0.2 (≈ 0.439 µM) | – | – | – | –
CC(NC(=S)Nc1ccc(NC(=O)c2cc3ccccc3cn2)cc1)c1cc2ccccc2o1 (centres unmarked) [Example 985, Isoquinoline-3-carboxylic acid {4-[3-(1-benzofuran-2-yl-ethyl)-thioureido]-phenyl}-amide] | > 10 | > 10 | 0.035 (≈ 0.075 µM) | – | – | – | –
CC(NC(=S)Nc1ccc(NC(=O)c2cnc3ccccc3c2)cc1)c1ccc(F)cc1 (centres unmarked) [Example 988, Quinoline-3-carboxylic acid (4-{3-[1-(4-fluoro-phenyl)-ethyl]-thioureido}-phenyl)-amide] | > 10 | > 10 | 3.4 (≈ 7.65 µM) | – | – | – | –
CC(C)COc1ccc(NC(=S)Nc2ccc(NC(=O)c3ccccc3F)cc2)cc1Cl [Example 994, N-{4-[3-(3-Chloro-4-isobutoxy-phenyl)-thioureido]-phenyl}-2-fluoro-benzamide] | > 10 | > 10 | > 10 | – | – | – | –
COc1ccc(NC(=S)Nc2ccc(NC(=O)c3ccccc3F)cc2)cc1F [Example 995, 2-Fluoro-N-{4-[3-(3-fluoro-4-methoxy-phenyl)-thioureido]-phenyl}-benzamide] | > 10 | > 10 | > 10 | – | – | – | –
COCCOc1ccc(NC(=S)Nc2ccc(NC(=O)c3ccccc3F)cc2)cc1Cl [Example 996, N-(4-{3-[3-Chloro-4-(2-methoxy-ethoxy)-phenyl]-thioureido}-phenyl)-2-fluoro-benzamide] | > 10 | > 10 | 10 (≈ 21.1 µM) | – | – | – | –
Cc1ccc(NC(=S)Nc2ccc(NC(=O)c3ccccc3F)cc2)cc1F [Example 997, 2-Fluoro-N-{4-[3-(3-fluoro-4-methyl-phenyl)-thioureido]-phenyl}-benzylamide] | – | – | – | 4 (≈ 10.1 µM) | 1.9 (≈ 4.78 µM) | >10 | –
COc1ccc(NC(=S)Nc2ccc(NC(=O)c3ccccc3F)cc2)cc1C(F)(F)F [Example 998, 2-Fluoro-N-{4-[3-(4-methoxy-3-trifluoromethyl-phenyl)-thioureido]-phenyl}-benzamide] | > 10 | 3 (≈ 6.47 µM) | 5 (≈ 10.8 µM) | – | – | – | –
O=C(Nc1ccc(NC(=S)Nc2ccc(Cl)cc2O)cc1)c1ccccc1F [Example 1001, N-{4-[3-(4-Chloro-2-hydroxy-phenyl)-thioureido]-phenyl}-2-fluoro-benzamide] | 2.6 (≈ 6.25 µM) | 4.3 (≈ 10.3 µM) | 3.6 (≈ 8.66 µM) | – | – | – | –
CC(NC(=S)Nc1ccc(NC(=O)c2ccccc2F)cc1)c1cc2ccccc2o1 (centres unmarked) [Example 1002, N-{4-[3-(1-Benzofuran-2-yl-ethyl)-thioureid]-phenyl}-2-fluoro-benzamide] | – | – | – | 2.1 (≈ 4.84 µM) | >10 | 0.08 (≈ 0.185 µM) | –
Cc1ccc(NC(=S)Nc2ccc(NC(=O)c3ccccc3F)cc2)cc1C(F)(F)F [Example 1003, 2-Fluoro-N-{4-[3-(4-methyl-3-trifluoromethyl-phenyl)-thioureido]-phenyl}-benzamide] | > 10 | > 10 | > 10 | – | – | – | –
CC(NC(=S)Nc1ccc(NC(=O)c2ccccc2F)cc1)c1ccc(S(=O)(=O)N2CCCCC2)cc1 (centres unmarked) [Example 1009] | – | – | – | >10 | >10 | >10 | –
O=C(Nc1ccc(NC(=S)Nc2ccc(OCC(F)(F)F)cc2OCC(F)(F)F)cc1)c1ccccc1F [Example 1010, N-(4-{3-[2,4-Bis-(2,2,2-trifluoro-ethoxy)-phenyl]-thioureido}-phenyl)-2-fluoro-benzamide] | > 10 | > 10 | > 10 | – | – | – | –
COc1ccccc1C(=O)Nc1ccc(NC(=S)NC(C)c2ccc(C#N)cc2)cc1 (centres unmarked) [Example 1017, N-(4-{3-[1-(4-Cyano-phenyl)-ethyl]-thioureido}-phenyl)-2-methoxy-benzamide] | > 10 | > 10 | 0.3 (≈ 0.697 µM) | – | – | – | –
COc1ccccc1C(=O)Nc1ccc(NC(=S)NC(C)c2cc3ccccc3o2)cc1 (centres unmarked) [Example 1018, N-{4-[3-(1-Benzofuran-2-yl-ethyl)-thioureido]-phenyl}-2-methoxy-benzamide] | > 10 | > 10 | 0.09 (≈ 0.202 µM) | – | – | – | –
COc1ccccc1C(=O)Nc1ccc(NC(=S)NC(C)c2ccc(Br)cc2)cc1 (centres unmarked) [Example 1019, N-(4-{3-[1-(4-Bromo-phenyl)-ethyl]-thioureido}-phenyl)-2-methoxy-benzamide] | 2.6 (≈ 5.37 µM) | > 10 | 0.05 (≈ 0.103 µM) | – | – | – | –
CC(NC(=S)Nc1ccc(NC(=O)c2ccc(C(F)(F)F)cc2)cc1)c1ccc(F)cc1 (centres unmarked) [Example 1021, N-(4-{3-[1-(4-Fluorophenyl)-ethyl]-thioureido}-phenyl)-4-trifluoromethyl-benzamide] | > 10 | > 10 | 0.4 (≈ 0.867 µM) | – | – | – | –
N-{4-[3-(3-Butylsulfonyl-phenyl)-thioureido]-phenyl}-2-fluoro-benzamide [Example 966] | – | – | – | 2.5 | 7 | 8 | 95
N-{4-[3-(3-Chloro-4-methoxy-phenyl)-thioureido]-phenyl}-4-methoxy-benzamide [Example 821] | – | – | – | 1 | 0.15 | >10 | 55
